Like-named read-outs stand apart in the source and are kept apart here. Non-standard residues stand in square brackets, D forms with d. Residues, ends and D or L forms follow the SMILES beside them. No end group written: not given here. pGlu = O=C1CC[C@@H](C(=O)O)N1; Thz = O=C(O)[C@@H]1CSCN1
Tests used:
[1] = tested on: human ortholog of Drosophila obesity gene; experiment: Table 1: type of interaction of small molecule with therapeutic target gene; design: key: O: Obesity - obesity pathway interaction; B: validated binding partner
[2] = tested on: human ortholog of Drosophila obesity gene; design: key: O: Obesity - obesity pathway interaction; B: validated binding partner; details: cited from earlier work
[3] = interaction of the small molecule with the human ortholog(s) / Drosophila gene(s) listed in the same table line

| Compound | Type: Type of interaction [2] | Type: Type of interaction [2, 3] | further results |
| --- | --- | --- | --- |
| COc1ccc(-c2cc(=O)c3c(OC)c(OC)c(OC)c(OC)c3o2)cc1 [Tangeretin] | – | – | Type: Type of interaction [1]: B |
| O=C(O[C@@H]1Cc2c(O)cc(O)cc2O[C@@H]1c1ccc(O)c(O)c1)c1cc(O)c(O)c(O)c1 [epicatechin gallate] | – | – | Type: Type of interaction [1]: B |
| O=C1C[C@@H](c2ccc(O[C@@H]3O[C@H](CO)[C@@H](O)[C@H](O)[C@H]3O)cc2)Oc2cc(O)ccc21 [liquiritin] | – | – | Type: Type of interaction [1]: O |
| CO[C@H](C(=O)[C@@H](O)[C@@H](C)O)[C@@H]1Cc2cc3cc(O[C@H]4C[C@@H](O[C@H]5C[C@@H](O)[C@H](O)[C@@H](C)O5)[C@H](O)[C@@H](C)O4)c(C)c(O)c3c(O)c2C(=O)[C@H]1O[C@H]1C[C@@H](O[C@H]2C[C@@H](O[C@H]3C[C@](C)(O)[C@H](O)[C@@H](C)O3)[C@@H](O)[C@@H](C)O2)[C@H](O)[C@@H](C)O1 [mithramycin A] | B | – | – |
| CNCc1nnc2n1-c1ccc(Cl)cc1C(c1ccccc1)=NC2 [mono-N-demethyladinazolam] | O | – | – |
| C[C@@H]1C[C@H]2O[C@@H]2/C=C\C=C\C(=O)Cc2cc(O)cc(O)c2C(=O)O1 [monocillin I] | O | – | – |
| CN(C)c1cccc2c(S(=O)(=O)NCCCCCN)cccc12 [monodansylcadaverine] | – | O | – |
| CN1CC[C@]23c4c5ccc(O[C@@H]6O[C@H](C(=O)O)[C@@H](O)[C@H](O)[C@H]6O)c4O[C@H]2[C@@H](O)C=C[C@H]3[C@H]1C5 [morphine-3-glucuronide] | B | – | – |
| CCOc1cc(N)c(Cl)cc1C(=O)NCC1CN(Cc2ccc(F)cc2)CCO1 (centres unmarked) [mosapride] | – | O | – |
| CC1CC(=O)NN=C1c1cc(-n2ccnc2)cs1 (centres unmarked) [motapizone] | O | – | – |
| Oc1ccc2c3c1O[C@H]1c4[nH]c5ccccc5c4C[C@@]4(O)[C@@H](C2)N(CC2CC2)CC[C@]314 [naltrindole] | B | – | – |
| CO[C@H]1CC[C@@H](O[C@H]2C[C@H]([C@]3(C)CC[C@]4(C[C@H](O)[C@@H](C)[C@@H]([C@@H](C)/C=C(\C)C(=O)[C@H](C)C[C@H](C)C(=O)O)O4)O3)O[C@]3(O[C@@H]([C@H]4O[C@@](O)(CO)[C@H](C)C[C@@H]4C)C[C@@H]3C)[C@@H]2C)O[C@@H]1C [nanchangmycin] | O | – | – |
| CC(C)[C@H]1CC[C@H](C(=O)N[C@H](Cc2ccccc2)C(=O)O)CC1 [nateglinide] | – | O | – |
| [NH2][Pt]1([NH2])[O]CC(=O)[O]1 [nedaplatin] | O | – | – |
| CNc1cc(OC)c(C(=O)NC2CCN(Cc3ccccc3)C2C)cc1Cl (centres unmarked) [nemonapride] | – | O | – |
| O=C1NC(=O)C(Cc2ccc3cc(OCc4ccccc4F)ccc3c2)S1 (centres unmarked) [netoglitazone] | – | B | – |
| CC(CNC(=O)c1cccnc1)NC(=O)c1cccnc1 (centres unmarked) [nicaraven] | – | O | – |
| O=C1OC(=O)[C@H]2[C@@H]1[C@@H]1CC[C@H]2O1 [norcantharidin] | B | – | – |
| O=C1NC(=O)C2C3C=CC(C3)C12 (centres unmarked) [noreximide] | O | – | – |
| NCCC(Oc1ccc(C(F)(F)F)cc1)c1ccccc1 (centres unmarked) [norfluoxetine] | – | B | – |
| Oc1ccc(CC2NCCc3cc(O)c(O)cc32)cc1O (centres unmarked) [norlaudanosoline] | B | – | – |
| COc1ccc(CCNCCCC(C#N)(c2ccc(OC)c(OC)c2)C(C)C)cc1OC (centres unmarked) [norverapamil] | – | O | – |
| CO[C@@H]1[C@@H](OC(N)=O)[C@@H](O)[C@H](Oc2ccc3c(O)c(NC(=O)c4ccc(O)c(CC=C(C)C)c4)c(=O)oc3c2C)OC1(C)C [novobiocin] | – | O | – |
| C[C@@H]1Cc2c(Cl)cc(C(=O)N[C@@H](Cc3ccccc3)C(=O)O)c(O)c2C(=O)O1 [ochratoxin A] | O | – | – |
| O=C(O[C@H]1[C@@H]2OC(=O)c3cc(O)c(O)c(O)c3-c3c4cc(c(O)c3O)Oc3c(cc(O)c(O)c3O)C(=O)O[C@H]3C(O)O[C@@H]5COC(=O)c6cc(O)c(O)c(O)c6-c6c(cc(c(O)c6O)Oc6c(cc(O)c(O)c6O)C(=O)O[C@H]1C(O)O[C@@H]2COC4=O)C(=O)O[C@H]5[C@@H]3OC(=O)c1cc(O)c(O)c(O)c1)c1cc(O)c(O)c(O)c1 (some centres unmarked) [oenothein B] | B | – | – |

| Compound | Type: Type of interaction [2] | Type: Type of interaction [2, 3] | further results |
| --- | --- | --- | --- |
| CO[C@H]1C[C@H](O[C@H]2CC[C@@]3(C)[C@H](CC[C@@H]4[C@@H]3CC[C@]3(C)[C@@H](C5=CC(=O)OC5)[C@@H](OC(C)=O)C[C@]43O)C2)O[C@@H](C)[C@@H]1O [oleandrin] | B | – | – |
| CCCCCCCC/C=C\CCCCCCCC(N)=O [oleylamide] | B | – | – |
| COc1ccc(-c2coc3cc(O)cc(O)c3c2=O)cc1 [olmelin] | B | – | – |
| O=C(N[C@H]1CCS[C@H]2CCC[C@@H](C(=O)O)N2C1=O)[C@@H](S)Cc1ccccc1 [omapatrilat] | – | O | – |
| CNC(=N)NCCC[C@H](N)C(=O)O [omega-N-Methylarginine] | O | – | – |
| COc1ccc2nc(S(=O)(=O)Cc3ncc(C)c(OC)c3C)[nH]c2c1 [omeprazole sulfone] | – | B | – |
| CO[C@@H]1C(=O)CC[C@]2(CO2)[C@@]1(O)[C@@]1(C)O[C@@H]1CC=C(C)C [ovalicin] | – | B | – |
| O=C(O)C(=O)O.[NH-][C@@H]1CCCC[C@H]1[NH-].[Pt+2] [oxaliplatin] | O | – | – |
| O=c1[nH]c2ccccc2n1CCCN1CCN(C(c2ccccc2)c2ccccc2)CC1 [oxatomide] | – | B | – |
| NC(=O)N1c2ccccc2CC(=O)c2ccccc21 [oxcarbazepine] | – | O | – |
| O=C1CCC[C@@H]2[C@H]3CCC[N+]4([O-])CCC[C@@H](CN12)[C@@H]34 (some centres unmarked) [oxymatrine] | – | B | – |
| Nc1ccc(C(=O)NCC(=O)O)cc1 [p-Aminohippuric Acid] | – | B | – |
| NCCC(O)(P(=O)(O)O)P(=O)(O)O [pamidronate] | – | B | – |
| CC1(C)CCC[C@](C)([C@H]2CC[C@]3(C)[C@@H]2[C@H](O)C[C@@H]2[C@@]4(C)CC[C@H](O)C(C)(C)[C@@H]4CC[C@]23C)O1 [panaxadiol] | – | B | – |
| c1ccc2c(c1)ccc1ccccc12 [phenanthrene] | – | O | – |
| COc1cc([C@@H]2c3cc4c(cc3[C@H](O)[C@H]3COC(=O)[C@@H]23)OCO4)cc(OC)c1OC [picropodophyllin] | – | B | – |
| O=C1CC[C@@H](C(=O)N2CSC[C@H]2C(=O)O)N1 [pidotimod] ([pGlu]-[Thz]-OH) | – | O | – |
| CC1=CC(=O)c2c(O)cccc2C1=O [plumbagin] | – | B | – |
| CC[C@@H]([C@H](C)O)n1ncn(-c2ccc(N3CCN(c4ccc(OC[C@@H]5CO[C@@](Cn6cncn6)(c6ccc(F)cc6F)C5)cc4)CC3)cc2)c1=O [posaconazole] | – | B | – |
| CCCCC[C@H](O)/C=C/[C@H]1C=CC(=O)[C@@H]1CCCCCCC(=O)O [prostaglandin A1] | O | – | – |
| CCCCC[C@H](O)/C=C/[C@H]1C(=O)C[C@H](O)[C@@H]1C/C=C\CCCC(=O)O [prostaglandin D2] | B | – | – |
| CCCCC[C@H](O)/C=C/[C@H]1[C@H](O)CC(=O)[C@@H]1CCCCCCC(=O)O [prostaglandin E1] | O | – | – |
| CCCCC[C@H](O)/C=C/[C@@H]1[C@@H](C/C=C\CCCC(=O)O)[C@@H](O)C[C@H]1O [prostaglandin F2alpha] | O | – | – |
| CCCCC[C@H](O)/C=C/[C@@H]1[C@@H](C/C=C\CCCC(=O)O)[C@@H]2C[C@H]1OO2 [prostaglandin H2] | O | – | – |
| CC(=O)O[C@@]12C[C@@H](C)[C@@]3(O)[C@@H](C=C(CO)C[C@]4(O)C(=O)C(C)=C[C@@H]34)[C@@H]1C2(C)C [prostratin] | – | O | – |

| Compound | Type: Type of interaction [2] | Type: Type of interaction [2, 3] | further results |
| --- | --- | --- | --- |
| COCCCN1CCC(NC(=O)c2cc(Cl)c(N)c3c2OCC3)CC1 [prucalopride] | – | O | – |
| COC(=O)C1=CC[C@@]23CC[C@@H]([C@@](C)(/C=C/C=C(\C)C(=O)O)OC2=O)[C@@]3(OC(C)=O)CC1 [pseudolaric acid B] | O | – | – |
| O=c1c(-c2ccc(O)cc2)coc2c([C@@H]3O[C@H](CO)[C@@H](O)[C@H](O)[C@H]3O)c(O)ccc12 [puerarin] | – | B | – |
| OCCOCCN1CCN(C2=Nc3ccccc3Sc3ccccc32)CC1 [quetiapine] | – | O | – |
| COC1=C(CC(C)OC(=O)c2cc(Cl)c(O)cc2O)C(=O)C(NC=O)=CC1=O (centres unmarked) [radester] | – | O | – |
| C[C@H](N[C@@H](CCc1ccccc1)C(=O)O)C(=O)N1[C@H](C(=O)O)C[C@@H]2CCC[C@@H]21 [ramiprilat] | B | – | – |
| O=c1c2ccccc2nc2n1CCc1c-2[nH]c2ccccc12 [rutecarpine] | – | – | Type: Type of interaction [1]: B |
| O=C(/C=C/c1ccccc1)NC(NC(=S)Nc1cccc2cccnc12)C(Cl)(Cl)Cl (centres unmarked) [salubrinal] | – | – | Type: Type of interaction [1]: B |
| LY 303511 | O | – | – |
| Pyrethrins | – | O | – |
| mahanine | B | – | – |
| maraviroc | B | – | – |
| melitten | O | – | – |
| milbemycin | O | – | – |
| neodymium | O | – | – |
| neuromedin C (GNHWAVGHLM; ends and bridges not checked; UniProt P07492 41-50, looked up) | – | O | – |
| obovatol | B | – | – |
| omalizumab | – | B | – |
| pegvisomant | O | – | – |
| pentosidine | B | – | – |
| pheophorbide a | O | – | – |
| pifithrin | B | – | – |
| pindobind | O | – | – |
| prostaglandin J2 | O | – | – |

Reference: patent publication US20130030007A1, “Obesity Small Molecules” (AKRON MOLECULES GMBH, priority 2010, published 2013)
